Target: hepatitis C virus RNA dependant polymerase (NS5B) (Hepatitis C virus genotype 1b, UniProt P26663)
Experiment: Inhibition of NS5B RNA dependent RNA polymerase activity
Type: biochemical
Protocol: A suitable assay is described in the examples.
Inhibition of NS5B RNA Dependent RNA Polymerase Activity
The compounds of the invention were tested for inhibitory activity against the hepatitis C virus RNA dependant polymerase (NS5B), according to protocol described in WO 03/010141

Sequence of hepatitis C virus RNA dependant polymerase (NS5B) (P26663 2420-3010): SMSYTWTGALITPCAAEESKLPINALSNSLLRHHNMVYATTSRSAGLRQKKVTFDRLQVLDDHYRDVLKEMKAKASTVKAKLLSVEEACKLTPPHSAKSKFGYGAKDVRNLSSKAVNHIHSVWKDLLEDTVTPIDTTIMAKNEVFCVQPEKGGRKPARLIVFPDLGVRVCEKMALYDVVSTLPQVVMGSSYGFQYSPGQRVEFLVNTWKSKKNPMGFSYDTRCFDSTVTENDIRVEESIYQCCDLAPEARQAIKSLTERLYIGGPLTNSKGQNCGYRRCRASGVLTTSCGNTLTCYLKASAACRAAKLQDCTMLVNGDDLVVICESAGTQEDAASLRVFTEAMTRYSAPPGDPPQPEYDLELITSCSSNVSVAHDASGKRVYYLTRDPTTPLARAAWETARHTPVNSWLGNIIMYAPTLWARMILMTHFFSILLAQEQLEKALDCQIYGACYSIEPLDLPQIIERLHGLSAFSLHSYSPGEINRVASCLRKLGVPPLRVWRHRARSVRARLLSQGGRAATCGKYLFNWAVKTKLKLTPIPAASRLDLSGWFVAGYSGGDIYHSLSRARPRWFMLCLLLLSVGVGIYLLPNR

| IC50 (Table 4, class ranges) | IC50 (Table 1, HCV NS5B polymerase) | SMILES | other results |
| --- | --- | --- | --- |
| < 200 nM | – | O=C(O)C=Cc1ccc2nc(C3(NC(=O)c4ccc5c(C6CCCCC6)c(-c6ccoc6)n(CC(=O)N6CCOCC6)c5c4)CCC3)[nH]c2c1 [Example 4067] | – |
| < 200 nM | – | O=C(NS(=O)(=O)c1ccccc1)c1ccc2c(C3CCCCC3)c(-c3ccoc3)n(CC(=O)N3CCC(N4CCCC4)CC3)c2c1 [Example 4110] | – |
| 200 to 1000 nM | – | CN1CCN(C(=O)Cn2c(-c3ccoc3)c(C3CCCCC3)c3ccc(C(=O)NCc4ccccn4)cc32)CC1 [Example 4015] | – |
| < 200 nM | – | Cn1c(C2(NC(=O)c3ccc4c(C5CCCCC5)c(-c5ccoc5)n(CC(N)=O)c4c3)CCC2)nc2ccc(C=CC(=O)O)cc21 [Example 4100] | – |
| 200 to 1000 nM | – | C[C@@H](NC(=O)c1ccc2c(C3CCCCC3)c(-c3ccoc3)n(CC(=O)N3CCOCC3)c2c1)c1ccccc1 [Example 4007] | – |
| 200 to 1000 nM | – | COCC(C)NC(=O)c1ccc2c(C3CCCCC3)c(-c3ccoc3)n(CC(=O)N3CCN(C)CC3)c2c1 (centres unmarked) [Example 4020] | – |
| < 200 nM | – | CN1CCC(NC(=O)c2ccc3c(C4CCCCC4)c(-c4ccoc4)n(CC(=O)N4CCOCC4)c3c2)(c2nc3ccc(C=CC(=O)O)cc3[nH]2)C1 (centres unmarked) [Example 4069] | – |
| 1000 to 10000 nM | – | CN1CCN(C(=O)Cn2c(-c3ccoc3)c(C3CCCCC3)c3ccc(C(=O)NCCc4ccccc4)cc32)CC1 [Example 4026] | – |
| 200 to 1000 nM | – | COC(=O)C1(NC(=O)c2ccc3c(C4CCCCC4)c(-c4ccoc4)n(CC(=O)N4CCOCC4)c3c2)CCCC1 [Example 4073] | – |
| 200 to 1000 nM | – | CN1CCN(C(=O)Cn2c(-c3ccoc3)c(C3CCCCC3)c3ccc(C(=O)NCc4ccc(F)cc4)cc32)CC1 [Example 4022] | – |
| 200 to 1000 nM | – | O=C(NCc1ccc2c(c1)OCO2)c1ccc2c(C3CCCCC3)c(-c3ccoc3)n(CC(=O)N3CCOCC3)c2c1 [Example 4045] | – |
| 200 to 1000 nM | – | CN1CCN(C(=O)Cn2c(-c3ccoc3)c(C3CCCCC3)c3ccc(C(=O)NCc4ccncc4)cc32)CC1 [Example 4018] | – |

More lines, now with the values behind:

| SMILES | IC50 (Table 4, class ranges) | IC50 (Table 1, HCV NS5B polymerase) | other results |
| --- | --- | --- | --- |
| O=C(NS(=O)(=O)c1c(Cl)sc(Cl)c1Br)c1ccc2c(C3CCCCC3)c(-c3ccoc3)n(CC(=O)N3CCOCC3)c2c1 [Example 2029] | – | – | IC50 (Table 2, HCV NS5B polymerase): < 200 nM |
| O=C(O)/C=C/c1ccc(NC(=O)C2(NC(=O)Cn3c(-c4ccoc4)c(C4CCCCC4)c4ccc(C(=O)O)cc43)CCNCC2)cc1 [Example 1080] | – | < 200 nM | – |
| O=C(O)c1ccc2c(C3CCCCC3)c(-c3ccoc3)n(CC(=O)N3CCN(CCO)CC3)c2c1 [Example 1096] | – | < 200 nM | – |
| O=C(O)c1ccc2c(C3CCCCC3)c(-c3ccoc3)n(CC(=O)N3CC[C@@H]4CCCC[C@@H]4C3)c2c1 [Example 1018] | – | 1000 to 10000 nM | – |
| CC(C)c1cc(C(C)C)c(S(=O)(=O)NC(=O)c2ccc3c(C4CCCCC4)c(-c4ccoc4)n(CC(=O)N4CCOCC4)c3c2)c(C(C)C)c1 [Example 2043] | – | – | IC50 (Table 2, HCV NS5B polymerase): 200 to 1000 nM |
| CN(C(=O)Cn1c(-c2ccoc2)c(C2CCCCC2)c2ccc(C(=O)O)cc21)C1CCCCC1 [Example 1092] | – | < 200 nM | – |
| O=C(O)c1ccc2c(C3CCCCC3)c(-c3ccsc3)n(CC(=O)N3CCC(N4CCCC4)CC3)c2c1 [Example 1037] | – | < 200 nM | – |
| O=C(O)c1cc2c(cc1O)c(C1CCCCC1)c(-c1ccoc1)n2CC(=O)N1CCOCC1 [Example 7008] | – | – | IC50 (Table 7, class ranges): 1000 to 10000 nM |
| CN1CCN(C(=O)Cn2c(-c3ccc(Br)cn3)c(C3CCCCC3)c3ccc(C(=O)O)cc32)CC1 [Example 1134] | – | 200 to 1000 nM | – |
| O=C(O)c1ccc2c(C3CCCCC3)c(-c3ccoc3)n(CCC(=O)N3CCOCC3)c2c1 [Example 5002] | – | – | IC50 (Table 5, HCV NS5B polymerase): 200 to 1000 nM |
| Cc1cc(C)c(S(=O)(=O)NC(=O)c2ccc3c(C4CCCCC4)c(-c4ccoc4)n(CC(=O)N4CCOCC4)c3c2)c(C)c1 [Example 2044] | – | – | IC50 (Table 2, HCV NS5B polymerase): < 200 nM |
| O=C(Nc1ccccc1)c1ccc2c(c1)c(C1CCCCC1)c(-c1ccoc1)n2CC(=O)N1CCC(N2CCCC2)CC1 [Example 7023] | – | – | IC50 (Table 7, class ranges): 1000 to 10000 nM |
| CN(C)C(=O)Cn1c(-c2ccsc2)c(C2CCCCC2)c2ccc(C(=O)O)cc21 [Example 1028] | – | < 200 nM | – |
| O=C(NS(=O)(=O)c1ccccc1)c1ccc2c(C3CCCCC3)c(-c3ccoc3)n(CC(=O)N3CCOCC3)c2c1 [Example 2001] | – | – | IC50 (Table 2, HCV NS5B polymerase): < 200 nM |
| O=C(O)c1ccc2c(C3CCCCC3)c(-c3ccc(Br)cn3)n(CC(=O)N3CCC[C@H]3C(=O)O)c2c1 [Example 1137] | – | 200 to 1000 nM | – |
| CN1CCC(N(C)C(=O)Cn2c(-c3ccoc3)c(C3CCCCC3)c3ccc(C(=O)O)cc32)CC1 [Example 1104] | – | < 200 nM | – |
| O=C(O)/C=C/c1ccc(NC(=O)C2(NC(=O)c3ccc4c(c3)c(C3CCCCC3)c(-c3ccoc3)n4CC(=O)N3CCC(N4CCCC4)CC3)CCC2)cc1 [Example 7062] | – | – | IC50 (Table 7, class ranges): 1000 to 10000 nM |
| O=C(NS(=O)(=O)c1cccc2cccnc12)c1ccc2c(C3CCCCC3)c(-c3ccoc3)n(CC(=O)N3CCOCC3)c2c1 [Example 2024] | – | – | IC50 (Table 2, HCV NS5B polymerase): < 200 nM |
| CN(CC(=O)O)C(=O)Cn1c(-c2ccc(Br)cn2)c(C2CCCCC2)c2ccc(C(=O)O)cc21 [Example 1138] | – | 200 to 1000 nM | – |
| O=C(O)c1ccc2c(C3CCCCC3)c(-c3cnccn3)n(CC(=O)N3CCC(N4CCCC4)CC3)c2c1 [Example 1045] | – | < 200 nM | – |
